Reference: ChEMBL document CHEMBL1148370, “Studies toward the discovery of the next generation of antidepressants. 3. Dual 5-HT1A and serotonin transporter affinity within a class of N-aryloxyethylindolylalkylamines” (J Med Chem, 2004)

Legend:
[1] = molecular target: T1, Adrenergic receptor alpha-1 (Rattus norvegicus, UniProt P15823+P23944+P43140)
T1 sequence (P15823 whole entry): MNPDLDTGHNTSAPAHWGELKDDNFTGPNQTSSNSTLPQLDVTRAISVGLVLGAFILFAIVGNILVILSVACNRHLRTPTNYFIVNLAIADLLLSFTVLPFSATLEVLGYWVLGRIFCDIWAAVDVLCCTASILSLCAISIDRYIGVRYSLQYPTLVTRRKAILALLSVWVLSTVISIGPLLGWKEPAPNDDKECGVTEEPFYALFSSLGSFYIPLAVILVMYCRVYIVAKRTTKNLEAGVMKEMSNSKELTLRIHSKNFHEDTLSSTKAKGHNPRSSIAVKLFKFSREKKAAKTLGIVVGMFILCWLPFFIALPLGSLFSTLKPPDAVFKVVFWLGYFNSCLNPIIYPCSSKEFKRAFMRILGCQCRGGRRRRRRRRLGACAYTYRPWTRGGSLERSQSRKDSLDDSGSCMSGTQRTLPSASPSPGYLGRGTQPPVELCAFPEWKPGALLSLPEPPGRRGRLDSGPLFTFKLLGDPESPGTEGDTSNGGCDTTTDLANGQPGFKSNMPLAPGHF
T1 sequence (P23944 whole entry): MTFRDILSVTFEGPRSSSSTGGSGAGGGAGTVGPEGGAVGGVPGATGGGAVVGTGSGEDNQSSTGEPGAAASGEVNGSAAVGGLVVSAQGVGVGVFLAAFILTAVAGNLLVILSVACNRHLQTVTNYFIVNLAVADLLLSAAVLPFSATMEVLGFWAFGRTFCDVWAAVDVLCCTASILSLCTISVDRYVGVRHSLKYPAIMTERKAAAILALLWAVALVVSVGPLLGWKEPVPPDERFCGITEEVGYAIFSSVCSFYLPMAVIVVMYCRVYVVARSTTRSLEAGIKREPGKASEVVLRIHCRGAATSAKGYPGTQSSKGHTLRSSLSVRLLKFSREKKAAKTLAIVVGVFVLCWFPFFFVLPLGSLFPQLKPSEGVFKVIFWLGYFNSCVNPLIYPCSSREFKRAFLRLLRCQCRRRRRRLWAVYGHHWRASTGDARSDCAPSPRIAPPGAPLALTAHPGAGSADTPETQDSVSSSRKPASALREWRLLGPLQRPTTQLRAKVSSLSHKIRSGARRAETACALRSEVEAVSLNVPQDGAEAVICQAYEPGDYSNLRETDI
T1 sequence (P43140 whole entry): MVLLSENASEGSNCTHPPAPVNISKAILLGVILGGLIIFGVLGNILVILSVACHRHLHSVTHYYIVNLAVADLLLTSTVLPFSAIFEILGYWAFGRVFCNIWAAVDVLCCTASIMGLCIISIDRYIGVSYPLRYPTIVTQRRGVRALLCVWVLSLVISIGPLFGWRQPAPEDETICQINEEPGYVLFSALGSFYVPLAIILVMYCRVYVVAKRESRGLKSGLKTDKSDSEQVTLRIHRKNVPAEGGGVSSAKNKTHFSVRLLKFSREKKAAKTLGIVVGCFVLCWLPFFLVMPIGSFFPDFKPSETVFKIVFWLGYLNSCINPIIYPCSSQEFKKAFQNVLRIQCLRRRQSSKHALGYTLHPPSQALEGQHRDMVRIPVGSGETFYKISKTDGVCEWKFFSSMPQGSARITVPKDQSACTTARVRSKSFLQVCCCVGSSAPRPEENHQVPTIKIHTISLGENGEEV
Description: Binding affinity against rat cortical alpha-1 adrenergic receptor labeled with [3H]prazosin radioligand

[2] = molecular target: Sodium-dependent serotonin transporter (Homo sapiens, UniProt P31645); type: cell-based, JAR
Chain of Sodium-dependent serotonin transporter (Homo sapiens, UniProt P31645) (P31645 whole entry): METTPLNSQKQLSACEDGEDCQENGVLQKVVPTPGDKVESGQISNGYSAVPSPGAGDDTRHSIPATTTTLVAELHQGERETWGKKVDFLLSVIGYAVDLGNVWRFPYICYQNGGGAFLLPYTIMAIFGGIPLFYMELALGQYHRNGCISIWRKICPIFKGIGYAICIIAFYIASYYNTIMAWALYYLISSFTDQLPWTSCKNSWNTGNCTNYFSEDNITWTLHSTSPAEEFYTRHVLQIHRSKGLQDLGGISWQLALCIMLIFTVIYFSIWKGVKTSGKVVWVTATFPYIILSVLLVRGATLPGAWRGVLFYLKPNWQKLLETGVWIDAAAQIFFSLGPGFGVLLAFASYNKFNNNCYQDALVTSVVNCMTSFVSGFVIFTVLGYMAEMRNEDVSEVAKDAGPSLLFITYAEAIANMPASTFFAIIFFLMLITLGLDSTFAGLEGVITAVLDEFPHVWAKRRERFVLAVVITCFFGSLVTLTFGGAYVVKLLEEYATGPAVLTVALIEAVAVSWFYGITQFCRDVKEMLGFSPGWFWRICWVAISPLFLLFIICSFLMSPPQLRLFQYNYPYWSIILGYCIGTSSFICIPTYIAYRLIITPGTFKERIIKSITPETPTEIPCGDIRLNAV
Description: Inhibition concentration against [3H]5-HT uptake by human serotonin transporter in JAR cells

[3] = molecular target: Adrenergic receptor alpha-1 (Rattus norvegicus) (UniProt P15823+P23944+P43140); assay: Percent inhibition against rat cortical alpha-1 adrenergic receptor labeled with [3H]prazosin radioligand was determined; type: protein assay; conditions: concentration not given here
[4] = molecular target: Sodium-dependent serotonin transporter (Rattus norvegicus, UniProt P31652)
Chain of Sodium-dependent serotonin transporter (Rattus norvegicus, UniProt P31652) (P31652 whole entry): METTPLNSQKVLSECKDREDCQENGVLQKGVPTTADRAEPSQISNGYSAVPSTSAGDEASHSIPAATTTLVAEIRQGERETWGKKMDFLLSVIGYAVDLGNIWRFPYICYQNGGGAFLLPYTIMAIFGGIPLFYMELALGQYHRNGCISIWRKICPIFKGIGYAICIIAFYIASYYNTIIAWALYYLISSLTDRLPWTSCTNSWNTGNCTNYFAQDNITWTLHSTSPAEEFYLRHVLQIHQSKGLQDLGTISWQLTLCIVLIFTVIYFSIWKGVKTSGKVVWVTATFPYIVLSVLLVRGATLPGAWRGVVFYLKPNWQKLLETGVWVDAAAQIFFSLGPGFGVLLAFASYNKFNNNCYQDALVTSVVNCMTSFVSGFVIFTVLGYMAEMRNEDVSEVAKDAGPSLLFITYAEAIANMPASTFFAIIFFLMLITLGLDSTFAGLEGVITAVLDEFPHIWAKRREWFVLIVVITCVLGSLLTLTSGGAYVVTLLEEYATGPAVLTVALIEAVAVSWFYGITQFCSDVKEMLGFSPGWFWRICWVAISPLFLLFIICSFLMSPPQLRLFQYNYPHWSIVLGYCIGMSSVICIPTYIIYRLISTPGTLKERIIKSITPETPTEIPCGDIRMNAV
Description: Binding affinity against serotonin transporter in rat cortical tissues using radioligand [3H]paroxetine

Compound | Ki [1] | IC50 [2] | inhibition [3] | Ki [4]
Fc1ccc2[nH]cc(CCCNCCOc3cc(Cl)cc4[nH]cnc34)c2c1 | 4.6 nM | 4.5 nM |  | 
Fc1cc2c(c(OCCNCCc3c[nH]c4ccc(F)cc34)c1)OCCC2 | 11.9 nM | 86.4 nM |  | 
Fc1cc2c(c(OCCNCCc3c[nH]c4ccc(F)cc34)c1)OCC2 | 100 nM | 254 nM | 85% | 
Fc1ccc2[nH]cc(CCCNCCOc3cccc4c3OCCO4)c2c1 | 9.6 nM | 6.3 nM |  | 
c1ccc2c(CCCNCCOc3cccc4[nH]ccc34)c[nH]c2c1 | 100 nM | 154 nM | 89% | 
Fc1cc2c(c(OCCNCCCc3c[nH]c4ccc(F)cc34)c1)OCC2 | 9.2 nM | 61.5 nM |  | 1.17 nM
Fc1cc(OCCNCCCc2c[nH]c3ccc(F)cc23)c2occc2c1 | 34.3 nM |  |  | 2.2 nM
COc1ccccc1OCCNCCCCc1c[nH]c2ccccc12 | 100 nM |  | 99% | 
c1ccc2c(CCCCNCCOc3cccc4[nH]ccc34)c[nH]c2c1 |  | 862 nM |  | 
c1cnc2c(OCCNCCCc3c[nH]c4ccccc34)cccc2c1 | 7.4 nM |  |  | 
Fc1ccc2[nH]cc(CCNCCOc3cccc4c3OCCO4)c2c1 | 100 nM | 84.7 nM | 80% | 13.5 nM
Fc1ccc2[nH]cc(CCCNCCOc3cccc4nccnc34)c2c1 | 52 nM | 20 nM |  | 1.2 nM
Fc1ccc2[nH]cc(CCCNCCOc3cccc4ccoc34)c2c1 | 27.7 nM | 28.1 nM |  | 
COc1ccc(F)cc1OCCNCCCc1c[nH]c2ccc(F)cc12 | 2.5 nM | 20.5 nM |  | 
COc1ccc(F)cc1OCCNCCc1c[nH]c2ccc(F)cc12 | 4.8 nM |  |  | 23.5 nM
Fc1cc(OCCNCCCc2c[nH]c3ccc(F)cc23)c2c(c1)OCCO2 | 13.3 nM | 24.6 nM |  | 0.49 nM
COc1ccc(F)cc1OCCNCCc1c[nH]c2ccccc12 | 3.3 nM | 249 nM |  | 43 nM
c1ccc2c(OCCNCCCc3c[nH]c4ccccc34)cccc2c1 | 204 nM | 2170 nM |  | 123 nM
Fc1cc2c(c(OCCNCCc3c[nH]c4ccccc34)c1)OCCC2 | 4.4 nM | 42.2 nM |  | 
Fc1ccc2[nH]cc(CCCNCCOc3cccc4c3CCCC4)c2c1 |  | 305 nM |  | 
Fc1cc2c(c(OCCNCCCc3c[nH]c4ccc(F)cc34)c1)OCCC2 | 100 nM | 7 nM | 79% | 
Fc1ccc2[nH]cc(CCCNCCOc3cccc4c3OCC4)c2c1 | 100 nM | 9.7 nM | 85% | 
Fc1ccc2[nH]cc(CCCNCCOc3cccc4ncccc34)c2c1 | 122 nM | 73 nM |  | 1.1 nM
Fc1ccc2[nH]cc(CCCNCCOc3cccc4[nH]cnc34)c2c1 | 100 nM |  | 93% | 
Fc1ccc2[nH]cc(CCCNCCOc3ccccc3)c2c1 | 3.4 nM | 3790 nM |  | 120 nM
COc1ccccc1OCCNCCCc1c[nH]c2ccc(F)cc12 |  | 20 nM | 95% | 
Fc1ccc2[nH]cc(CCCNCCOc3cccc4[nH]ccc34)c2c1 | 5.6 nM | 24.4 nM |  | 
